Data taken from US7998754B2, “In vitro method for the simultaneous detection and identification of antibiotics of different classes and corresponding diagnostic kit” (Unisensor S.A., priority 2005, dated 2011).
Where two headings read alike, the source gives them in different places.

Assays:
β-lactame receptor (RSA) [1] = target: T1, β-lactame receptor (RSA) (Staphylococcus aureus, UniProt P18357); assay type: binding; details: milk; for Detection limit: Concentration: β-lactames, positive when ratio test/control <= 1; for Intensity ratio of parameter/control zone: at the detection limit concentration
T1 construct: made in house
T1 sequence (P18357 331-585 limits assumed): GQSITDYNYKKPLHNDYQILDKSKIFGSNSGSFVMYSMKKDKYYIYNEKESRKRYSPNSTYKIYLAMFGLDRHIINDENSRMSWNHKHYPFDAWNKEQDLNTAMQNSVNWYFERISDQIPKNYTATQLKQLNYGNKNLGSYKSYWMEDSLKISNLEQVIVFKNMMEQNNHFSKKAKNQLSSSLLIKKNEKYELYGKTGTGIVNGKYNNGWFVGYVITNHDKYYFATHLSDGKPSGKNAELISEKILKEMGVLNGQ
Text: (§1) For the detection of β-lactames, the reactive mixture comprises the specific receptor for recognising β-lactames, its specific antibody and a preparation of protein A conjugated with colloidal gold. For the detection of tetracyclines, the reactive mixture comprises the receptor of the tetracyclines, its specific antibody, a specific fragment of DNA conjugated with biotin and a preparation of protein A conjugated with colloidal gold.
(§2) The β-lactame receptor is obtained by the method described by Golemi-Kotra et al.^(6) The unpurified receptor is filtered on a Millex HV membrane (Millipore, Inc., USA) before it is stored at 4° C. in the presence of glycerol at 50% v/v.
(§3) This mixture is either prepared as required or lyophilisated for 20 hours. The Recovery System
(§4) The recovery system comprises a nitrocellulose membrane on which are fixed, at distinct points, the elements capable of forming a complex with the recognition molecules of the reactive mixture. These elements are: • for the “beta” signal (for β-lactame), an antibiotic, preferably of penicillin or cephalosporine type, fixed to a molecule with no particular reactivity to protein A, biotin or avidine. […] An egg-white avidine is preferably used.
(§5) In the case of a detection of two parameters, the preparations of β-lactoglobulin and avidine will be deposited on each side of the control line. For example, the β-lactoglobulin conjugate already prepared will be deposited below the control line and the neutralized avidine solution will be deposited above the control line (FIG. 1).
(§6) 200 μL of cold milk are incubated at 50° C. in the presence of 50 μl of the reagents prepared and/or lyophilisated as above. After 3 minutes of incubation at 50° C., the above-described recovery element is immersed in the solution. The final interpretation is made after 3 minutes of incubation by means of an optical dipstick reader available at Matest (Germany);
(§7) As a general rule, when the ratio of the intensities of the concerned test signal relative to the control signal is less than or equal to 1, the sample is considered positive for the parameter (compound) concerned.

β-lactame receptor (RSA) [2] = target: T1, β-lactame receptor (RSA); assay type: binding; details: milk; for Concentration detection limit: β-lactames, three-parameter test; for Ratio test/control: at the detection limit concentration
Protocol: This mixture is prepared either as required or lyophilisated for 20 hours. The Recovery System
The other capture zones are identical but differently positioned, as in FIG. 2.
A single control zone serves as a reference for the three markers.
200 μL of cold milk are incubated at 50° C. in the presence of 50 μl of the reagents prepared and/or lyophilisated as above. After 3 minutes of incubation at 50° C., the above-described recovery element is immersed in the solution. The final interpretation is made after 3 minutes of incubation by means of an optical dipstick reader available at Matest (Germany).
As a general rule, if the ratio of the intensities of the concerned test signal relative to the control signal is less than or equal to 1, the sample is considered as positive for the parameter (compound) concerned.

[3] = cited from earlier work; for MRL/EU: maximum residue level, European Union
[4] = tested on: tetracycline receptor (TetR); assay: Example 1 dipstick test in milk, "tetra" capture zone (format 1); assay type: binding, E. Coli
Text: In addition, the recovery system is a specific and biotinylated fragment of DNA that can be fixed on a molecule of avidine attached to a nitrocellulose membrane. […] In this case, the fragment of DNA forms a complex with the receptor and a signal generated by the gold particles attached to the receptor appears.
as §1, §2
The DNA fragment is obtained at Eurogentec SA, Belgium according to the sequence and preparation described in patent application WO-A-03/048770. In this precise case, the DNA fragment is not fixed to a capture point on a nitrocellulose membrane but it is directly incorporated into the reactive mixture. This fragment will be recovered in testo by means of its biotinylated end on avidine fixed to a capture point (see below).
as §3, §4, §5, §6, §7

Compound: CC1(C)S[C@@H]2[C@H](NC(=O)Cc3ccccc3)C(=O)N2[C@H]1C(=O)O [Benzylpenicillin]
- Detection limit: Concentration (β-lactame receptor (RSA) [1]): 2 ppb
- Concentration detection limit (β-lactame receptor (RSA) [2]): 2 ppb

Compound: CO/N=C(\C(=O)N[C@@H]1C(=O)N2C(C(=O)O)=C(CSC(=O)c3ccco3)CS[C@H]12)c1csc(N)n1 [Ceftiofur]
- Safe level/US [3]: 50 ppb
- MRL/EU [3]: 100 ppb
- Intensity ratio of parameter/control zone (β-lactame receptor (RSA) [1]): 0.5
- Detection limit: Concentration (β-lactame receptor (RSA) [1]): 10 ppb
- Ratio test/control (β-lactame receptor (RSA) [2]): 0.5
- Concentration detection limit (β-lactame receptor (RSA) [2]): 10 ppb

Compound: CC1(C)S[C@@H]2[C@H](NC(=O)[C@H](N)c3ccccc3)C(=O)N2[C@H]1C(=O)O [Ampicillin]
- Intensity: zone T ([4]; Ampi 1 ppb): 380
- Intensity: zone T ([4]; Ampi 2 ppb): 405
- Intensity: zone T ([4]; Ampi 3 ppb): 408
- Intensity: zone T ([4]; Ampi 4 ppb): 386
- Intensity: zone T ([4]; Ampi 5 ppb): 397
- Intensity: zone T ([4]; Ampi 10 ppb): 414
- Intensity: zone B (β-lactame receptor (RSA) [1]; Ampi 1 ppb): 380
- Intensity: zone B (β-lactame receptor (RSA) [1]; Ampi 2 ppb): 250
- Intensity: zone B (β-lactame receptor (RSA) [1]; Ampi 3 ppb): 155
- Intensity: zone B (β-lactame receptor (RSA) [1]; Ampi 4 ppb + Tetra 75 ppb together): 122
- Intensity: zone B (β-lactame receptor (RSA) [1]; Ampi 4 ppb): 105
- Intensity: zone B (β-lactame receptor (RSA) [1]; Ampi 5 ppb): 55
- Intensity: zone B (β-lactame receptor (RSA) [1]; Ampi 10 ppb): 25
- Detection limit: Concentration (β-lactame receptor (RSA) [1]): 4 ppb
- Concentration detection limit (β-lactame receptor (RSA) [2]): 4 ppb

Compound: CC(=O)OCC1=C(C(=O)O)N2C(=O)[C@@H](NC(=O)CSc3ccncc3)[C@H]2SC1 [Cephapyrin]
- Safe level/US [3]: 20 ppb
- MRL/EU [3]: 60 ppb
- Intensity ratio of parameter/control zone (β-lactame receptor (RSA) [1]): 0.3
- Detection limit: Concentration (β-lactame receptor (RSA) [1]): 8 ppb
- Ratio test/control (β-lactame receptor (RSA) [2]): 0.3
- Concentration detection limit (β-lactame receptor (RSA) [2]): 8 ppb

Compound: Cloxacycline
- Safe level/US [3]: 10 ppb
- MRL/EU [3]: 30 ppb
- Intensity ratio of parameter/control zone (β-lactame receptor (RSA) [1]): 0.5
- Detection limit: Concentration (β-lactame receptor (RSA) [1]): 10 ppb
- Ratio test/control (β-lactame receptor (RSA) [2]): 0.5
- Concentration detection limit (β-lactame receptor (RSA) [2]): 10 ppb

Compound: CN(C)[C@@H]1C(O)=C(C(N)=O)C(=O)[C@@]2(O)C(O)=C3C(=O)c4c(O)cccc4[C@@](C)(O)[C@H]3C[C@@H]12 [Tetracycline]
- Safe level/US [3]: 300 ppb
- MRL/EU [3]: 100 ppb

Compound: CC1(C)S[C@@H]2[C@H](NC(=O)[C@H](N)c3ccc(O)cc3)C(=O)N2[C@H]1C(=O)O [Amoxicillin]
- Safe level/US [3]: 10 ppb
- MRL/EU [3]: 4 ppb
- Intensity ratio of parameter/control zone (β-lactame receptor (RSA) [1]): 0.4
- Detection limit: Concentration (β-lactame receptor (RSA) [1]): 4 ppb
- Ratio test/control (β-lactame receptor (RSA) [2]): 0.4
- Concentration detection limit (β-lactame receptor (RSA) [2]): 4 ppb

Compound: CN(C)[C@@H]1C(O)=C(C(N)=O)C(=O)[C@@]2(O)C(O)=C3C(=O)c4c(O)cccc4[C@@](C)(O)[C@H]3[C@H](O)[C@@H]12 [Oxytetracycline]
- Safe level/US [3]: 300 ppb
- MRL/EU [3]: 100 ppb

Compound: CN(C)[C@@H]1C(O)=C(C(N)=O)C(=O)[C@@]2(O)C(O)=C3C(=O)c4c(O)ccc(Cl)c4[C@@](C)(O)[C@H]3C[C@@H]12 [Chlortetracycline]
- Safe level/US [3]: 300 ppb
- MRL/EU [3]: 100 ppb

Compound: C[C@H]1c2cccc(O)c2C(=O)C2=C(O)[C@]3(O)C(=O)C(C(N)=O)=C(O)[C@@H](N(C)C)[C@@H]3[C@@H](O)[C@@H]21 [Doxycycline]
- Safe level/US [3]: 300 ppb
- MRL/EU [3]: 100 ppb
